From patent US7589090B2, “Diaminopyrimidines as P2X3 and P2X2/3 modulators” (Roche Palo Alto LLC, priority 2007, dated 2009)

Tests used:
[1] = Determination of pharmacokinetic parameters after oral gavage of prodrug; type: in vivo, dogs; conditions: plasma; prodrug dosed orally by gavage, dose equivalent to 0.127 mmol; hplc
Description: Groups of three dogs were used for each dose level of an experimental compound and one (1) non-cannulated dog was used as a vehicle control. Animals were allowed normal access to chow and water throughout the experiment. The prodrug N-[4-amino-5-(5-iodo-2-isopropyl-4-methoxy-phenoxy)-pyrimidin-2-yl]-2-dipropylamino-acetamide was formulated as an aqueous solution or an aqueous suspension and a dose equivalent to (0.127 mmol) was administered orally by gavage. A blood sample (0.3 mL) was collected from the […] at 0.5, 1, 2, 3, 4, 6 and 8 hours after via the jugular cannula. A sample of at least 0.3 mL of blood was withdrawn from the untreated animals 3 hours after dosing. After 24 hours from dosing, a blood sample was collected from all treated and control animals. Potassium oxalate/NaF was added to the samples which were stored on ice during sampling procedure. The samples were spun in a refrigerated centrifuge at −4° C. as soon as possible and the plasma samples were stored −20° C. immediately after centrifugation and later transferred to a −80° C. freezer until analysis. The concentration of the prodrug N-[4-amino-5-(5-iodo-2-isopropyl-4-methoxy-phenoxy)-pyrimidin-2-yl]-2-dipropylamino-acetamide and the parent compound 5-(5-Iodo-2-isopropyl-4-methoxy-phenoxy)-pyrimidine-2,4-diamine was determined by hplc.

human P2X2/3 receptor = molecular target: T1, human P2X2/3 receptor (Homo sapiens, UniProt P56373+Q9UBL9); assay: P2X2/3 FLIPR (Fluorometric Imaging Plate Reader) assay; type: cell-based; conditions: CHO-K1 cells transfected with human P2X2/3; agonist α,β-meATP 5 μM; FLIPR calcium fluorescence
T1 construct: expressed in transfected cells; host or cells: CHO-K1
T1 sequence (Q9UBL9 1-471): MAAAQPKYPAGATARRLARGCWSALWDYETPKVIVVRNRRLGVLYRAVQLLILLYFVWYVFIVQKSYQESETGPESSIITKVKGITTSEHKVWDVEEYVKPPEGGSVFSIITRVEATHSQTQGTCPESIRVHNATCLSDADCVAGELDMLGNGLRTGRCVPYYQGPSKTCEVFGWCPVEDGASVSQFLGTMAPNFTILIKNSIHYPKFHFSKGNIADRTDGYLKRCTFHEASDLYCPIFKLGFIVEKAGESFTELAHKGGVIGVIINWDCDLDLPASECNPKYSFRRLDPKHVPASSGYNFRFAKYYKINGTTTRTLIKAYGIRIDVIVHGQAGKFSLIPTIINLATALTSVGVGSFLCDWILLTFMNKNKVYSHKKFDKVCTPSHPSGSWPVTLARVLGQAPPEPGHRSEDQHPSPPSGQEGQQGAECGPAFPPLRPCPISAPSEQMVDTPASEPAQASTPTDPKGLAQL
T1 sequence (P56373 1-397): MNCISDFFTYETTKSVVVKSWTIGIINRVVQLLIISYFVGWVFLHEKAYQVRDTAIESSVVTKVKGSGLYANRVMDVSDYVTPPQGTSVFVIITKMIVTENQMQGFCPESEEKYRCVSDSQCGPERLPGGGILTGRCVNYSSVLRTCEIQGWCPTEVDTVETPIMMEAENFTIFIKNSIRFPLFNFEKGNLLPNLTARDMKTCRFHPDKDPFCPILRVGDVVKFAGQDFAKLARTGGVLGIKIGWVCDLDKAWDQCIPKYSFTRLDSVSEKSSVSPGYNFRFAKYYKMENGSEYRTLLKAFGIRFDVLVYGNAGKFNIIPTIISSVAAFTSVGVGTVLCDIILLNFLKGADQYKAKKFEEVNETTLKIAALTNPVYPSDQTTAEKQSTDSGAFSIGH
Description: (§1) CHO-K1 cells were transfected with cloned rat P2X3 or human P2X2/3 receptor subunits and passaged in flasks. 18-24 hours before the FLIPR experiment, cells were released from their flasks, centrifuged, and resuspended in nutrient medium at 2.5×10^5 cells/ml. The cells were aliquoted into black-walled 96-well plates at a density of 50,000 cells/well and incubated overnight in 5% CO2 at 37° C. On the day of the experiment, cells were washed in FLIPR buffer (calcium- and magnesium-free Hank's balanced salt solution, 10 mM HEPES, 2 mM CaCl2, 2.5 mM probenecid; FB). Each well received 100 μl FB and 100 μl of the fluorescent dye Fluo-3 AM [2 μM final conc.]. […]
(§2) Test compounds (dissolved in DMSO at 10 mM and serially diluted with FB) or vehicle were added to each well (25 μl of a 4× solution) and allowed to equilibrate for 20 minutes at room temperature. The plates were then placed in the FLIPR and a baseline fluorescence measurement (excitation at 488 nm and emission at 510-570 nm) was obtained for 10 seconds before a 100 μl/well agonist or vehicle addition. […] Fluorescence was measured for an additional 2 minutes at 1 second intervals after agonist addition. A final addition of ionomycin (5 μM, final concentration) was made to each well of the FLIPR test plate to establish cell viability and maximum fluorescence of dye-bound cytosolic calcium. […]

rat P2X3 receptor = molecular target: T2, rat P2X3 receptor (Rattus norvegicus, UniProt P49654); assay: P2X3 FLIPR (Fluorometric Imaging Plate Reader) assay; type: cell-based; conditions: CHO-K1 cells transfected with rat P2X3; agonist α,β-meATP 1 μM; FLIPR calcium fluorescence
T2 construct: expressed in transfected cells; host or cells: CHO-K1
T2 sequence (P49654 1-397): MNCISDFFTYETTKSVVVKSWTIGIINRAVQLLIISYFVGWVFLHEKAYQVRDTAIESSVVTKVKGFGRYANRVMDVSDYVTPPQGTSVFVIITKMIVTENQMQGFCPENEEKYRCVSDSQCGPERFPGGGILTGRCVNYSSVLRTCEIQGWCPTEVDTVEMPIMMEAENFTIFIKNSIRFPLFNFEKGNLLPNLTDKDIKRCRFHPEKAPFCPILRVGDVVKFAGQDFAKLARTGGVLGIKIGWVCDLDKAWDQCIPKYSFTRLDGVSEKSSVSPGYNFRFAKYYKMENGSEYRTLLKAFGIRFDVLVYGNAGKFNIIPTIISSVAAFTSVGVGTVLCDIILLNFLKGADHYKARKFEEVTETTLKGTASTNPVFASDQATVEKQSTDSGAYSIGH
Description: as §1, §2

CCCN(CCC)CC(=O)Nc1ncc(Oc2cc(I)c(OC)cc2C(C)C)c(N)n1 [Compound 2, N-[4-Amino-5-(5-iodo-2-isopropyl-4-methoxy-phenoxy)-pyrimidin-2-yl]-2-dipropylamino-acetamide]
melting point: 129 to 131 °C
AUC of the prodrug [1]: 21.1 ng·h/mL
Cmax of the prodrug [1]: 15.2 ng/mL

COc1cc(C(C)C)c(Oc2cnc(NC(=O)CNC3CCCC3)nc2N)cc1I [Compound 3, N-[4-Amino-5-(5-iodo-2-isopropyl-4-methoxy-phenoxy)-pyrimidin-2-yl]-2-cyclopentylamino-acetamide]
melting point: 176.5 to 178 °C

COc1cc(C(C)C)c(Oc2cnc(NC(=O)C(C)C)nc2N)cc1I [N-[4-Amino-5-(5-iodo-2-isopropyl-4-methoxy-phenoxy) -pyrimidin-2-yl]-isobutyramide]
pIC50 for the P2X2/3 receptor (human P2X2/3 receptor): ~7.4
pIC50 for the P2X3 receptor (rat P2X3 receptor): approximately 7.8
